Source: ChEMBL document CHEMBL1124217, “2,4-Diamino-5-benzylpyrimidines and analogues as antibacterial agents. 9. Lipophilic trimethoprim analogues as antigonococcal agents” (J Med Chem, 1988)
Values after ≈ are worked out from the molar mass of the structure shown.

How the values were obtained:
[1] = system: Klebsiella pneumoniae; assay: Inhibition of growth of Klebsiella pneumoniae (CN3632) measured as MIC compound/MIC Trimethoprim; assay type: functional
[2] = system: Escherichia coli; assay: Inhibition of growth of Escherichia coli (CN314) measured as MIC compound/MIC Trimethoprim; assay type: functional
[3] = system: Staphylococcus aureus; assay: Inhibition of growth of Staphylococcus aureus (CN491) measured as MIC compound/MIC Trimethoprim; assay type: functional
[4] = system: Klebsiella aerogenes; assay: Inhibition of growth of Enterobacter aerogenes (2200/186) measured as MIC(compound/MIC Trimethoprim; assay type: functional
[5] = system: Vibrio cholerae; assay: Inhibition of growth of Vibrio cholera (ATCC 14035) measured as MIC compound/MIC Trimethoprim; assay type: functional
[6] = system: Proteus vulgaris; assay: Inhibition of growth of Proteus vulgaris (CN329) measured as MIC compound/MIC Trimethoprim; assay type: functional
[7] = system: Shigella flexneri; assay: Inhibition of growth of Shigella flexneri (CN6007) measured as MIC compound/MIC Trimethoprim; assay type: functional
[8] = molecular target: T1, Dihydrofolate reductase (Rattus norvegicus, UniProt Q920D2); assay: Inhibition of Rat liver Dihydrofolate reductase(DHFR); settings: read-out: I50
T1 sequence (Q920D2 whole entry): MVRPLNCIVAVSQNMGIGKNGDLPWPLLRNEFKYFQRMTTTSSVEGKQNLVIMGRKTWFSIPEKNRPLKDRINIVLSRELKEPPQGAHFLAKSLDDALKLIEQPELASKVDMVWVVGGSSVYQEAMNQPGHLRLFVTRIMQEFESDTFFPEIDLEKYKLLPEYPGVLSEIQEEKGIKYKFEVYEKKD

[9] = system: Neisseria gonorrhoeae; assay: Inhibition of growth of Neisseria gonorrhoeae; assay type: functional
[10] = system: Salmonella
[11] = system: Staphylococcus aureus; assay: Inhibition of growth of Staphylococcus aureus (CN491) was measured
[12] = system: Vibrio cholerae; assay: microbe, parasite or virus in culture; settings: ATCC 14035
Description: Inhibition of growth of Vibrio cholera (ATCC 14035) was measured

[13] = system: Shigella flexneri; assay: Inhibition of growth of Shigella flexneri (CN6007) was measured
[14] = system: Serratia marcescens; assay: Inhibition of growth of Serratia marcescens (CN2398) was measured
[15] = system: Klebsiella aerogenes; assay: microbe, parasite or virus in culture
Description: Inhibition of growth of Enterobacter aerogenes (2200/186) was measured

[16] = system: Proteus vulgaris; assay: Inhibition of growth of Proteus vulgaris (CN329) was measured
[17] = system: Mycolicibacterium smegmatis; assay: Inhibition of growth of Mycobacterium smegmatis (S3254) was measured
[18] = system: Escherichia coli; assay: Inhibition of growth of Escherichia coli (CN314) was measured
[19] = system: Klebsiella pneumoniae; assay: Inhibition of growth of Klebsiella pneumoniae (CN3632) was measured

SMILES | MIC ratio [1] | MIC ratio [2] | MIC ratio [3] | MIC ratio [4] | MIC ratio [6] | MIC ratio [7] | MIC [9] | also measured
CCCc1cc(Cc2cnc(N)nc2N)cc(CCC)c1OC | 30 | 30 | 1 | 100 | 30 | 100 | – | MIC [5]: 10 µg/mL (≈ 31.8 µM)
C=CCc1cc(Cc2cnc(N)nc2N)cc(CCC)c1O | – | – | – | – | – | – | – | IC50 [8]: 3.63 µM
CCc1cc(Cc2cnc(N)nc2N)cc(CC)c1O | 10 | 3 | 3 | 10 | 10 | 10 | – | MIC [5]: 1 µg/mL (≈ 3.67 µM)
C=CCc1cc(Cc2cnc(N)nc2N)cc(OC)c1OC | – | – | – | – | – | – | 110 µM (≈ 33 µg/mL) | –
CCCc1cc(Cc2cnc(N)nc2N)cc(CC)c1OC | 30 | 30 | 0.3 | 100 | 30 | 30 | 17.5 µM (≈ 5.26 µg/mL) | IC50 [8]: 30 µM; MIC [5]: 10 µg/mL (≈ 33.3 µM)
Cc1cc(Cc2cnc(N)nc2N)cc(C(C)(C)C)c1O | 100 | 100 | 3 | 100 | 100 | 30 | – | –
CCc1cc(Cc2cnc(N)nc2N)cc(C)c1O | 3 | 3 | 1 | 3 | – | 3 | – | –
COc1c(C(C)C)cc(Cc2cnc(N)nc2N)cc1C(C)C | > 1000 | 3000 | 30 | > 1000 | > 1000 | – | – | –
CCCc1cc(Cc2cnc(N)nc2N)cc(OC)c1OC | – | – | – | – | – | – | 54 µM (≈ 16.3 µg/mL) | –
COc1cc(Cc2cnc(N)nc2N)cc(OC)c1OC [TRIMETHOPRIM] | – | – | – | – | – | – | 240 µM (≈ 69.7 µg/mL) | MIC [10]: 1 µg/mL (≈ 3.44 µM); MIC [11]: 1 µg/mL (≈ 3.44 µM); MIC [12]: 1 µg/mL (≈ 3.44 µM); MIC [13]: 1 µg/mL (≈ 3.44 µM); MIC [14]: 1 µg/mL (≈ 3.44 µM); MIC [15]: 1 µg/mL (≈ 3.44 µM); MIC [16]: 1 µg/mL (≈ 3.44 µM); MIC [17]: 1 µg/mL (≈ 3.44 µM); MIC [18]: 1 µg/mL (≈ 3.44 µM); MIC [19]: 1 µg/mL (≈ 3.44 µM)
COc1c(C(C)(C)C)cc(Cc2cnc(N)nc2N)cc1C(C)(C)C | > 1000 | 10000 | 30 | > 1000 | > 1000 | – | 13 µM (≈ 4.45 µg/mL) | –
CCCc1cc(Cc2cnc(N)nc2N)cc(CCC)c1O | 30 | 10 | 0.3 | 30 | 30 | 10 | – | MIC [5]: 1 µg/mL (≈ 3.33 µM)
C/C=C/c1cc(Cc2cnc(N)nc2N)cc(OC)c1OC | – | – | – | – | – | – | 110 µM (≈ 33 µg/mL) | –
CC(C)(C)c1cc(Cc2cnc(N)nc2N)cc(C(C)(C)C)c1O | > 1000 | > 1000 | 30 | > 1000 | > 1000 | > 1000 | 35 µM (≈ 11.5 µg/mL) | –
CCOc1cc(Cc2cnc(N)nc2N)cc(OC)c1OC | – | – | – | – | – | – | 180 µM (≈ 54.8 µg/mL) | –
COc1c(C)cc(Cc2cnc(N)nc2N)cc1C(C)(C)C | > 100 | 100 | 10 | 300 | > 30 | 300 | – | MIC [5]: 10 µg/mL (≈ 33.3 µM)
CCCc1cc(Cc2cnc(N)nc2N)cc(CC)c1O | 3 | 10 | 0.3 | 10 | 3 | 3 | 9 µM (≈ 2.58 µg/mL) | MIC [5]: 1 µg/mL (≈ 3.49 µM)
CCc1cc(Cc2cnc(N)nc2N)cc(C)c1OC | 30 | 30 | 3 | 30 | 3 | 30 | 140 µM (≈ 38.1 µg/mL) | –
Cc1cc(Cc2cnc(N)nc2N)cc(C)c1O | 3 | 10 | 10 | 1 | 3 | – | – | –
COc1c(C)cc(Cc2cnc(N)nc2N)cc1C | 300 | 1000 | 100 | 1000 | 300 | – | 200 µM (≈ 51.7 µg/mL) | –
CCc1cc(Cc2cnc(N)nc2N)cc(CC)c1OC | 10 | 3 | 0.3 | 10 | 30 | 3 | – | –
